The nature of data set [1]: Plasma protein binding by ultrafiltration, rat plasma. In kind it is in vitro ADME, SD rat. The method, then:
(§1) To prepare plasma samples of TPB15 at final concentrations of 4, 8, and 16 μg/mL, 1 μL of TPB15 dissolved in dimethyl sulfoxide (DMSO) at low (400 μg/mL), medium (800 μg/mL), and high (1600 μg/mL) concentrations was added to 99 μL of blank plasma obtained from humans, rats, mice, monkeys, and dogs. Each concentration was prepared in six replicates. The samples were then divided into two groups: one for determining the pre-ultrafiltration concentration (Cpre) and the other for measuring the post-ultrafiltration concentration (Ct), following the evaluation of the non-specific binding coefficient (NSB) of TPB15 to the ultrafiltration tubes. For Cpre determination, 10 μL of the sample was mixed with 990 μL of plasma, vortexed thoroughly, and analyzed for drug concentration using the previously reported liquid chromatography–tandem mass spectrometry (LC-MS/MS) method. For Ct determination, the samples were first incubated in a water bath at 37 °C for 3 h. After incubation, they were transferred to ultrafiltration tubes and centrifuged at 14,000 rpm for 20 min at 4 °C using a centrifuge (Sigma 3K-15) from Sigma Laborzentrifugen GmbH (Osterode am Harz, Germany). After centrifugation, 10 μL of the ultrafiltrate was mixed with 990 μL of plasma, vortexed, and analyzed for concentration using the same LC-MS/MS method. The formula for calculating the plasma protein binding rate (PPB) is as follows: PPB (%) = [1 − Ct/(1 − NSB)/Cpre] × 100%. (NSB: non-specific binding coefficient. Cpre: post-ultrafiltration concentration. Ct: pre-ultrafiltration concentration).

Data set [2] in a line: Plasma protein binding, overall across the five species. The format is in vitro ADME, mice, rats, dogs, monkeys, humans. The note with it: monkey, human, all species tested, low, medium and high concentrations (4 to 16 μg/mL), read-out: plasma protein binding rate, overall. The method, then:
as §1, with “The formula for calculating the plasma protein binding rate (PPB) is as follows: PPB (%) = [1 − Ct/(1 − NSB)/Cpre] × 100%. (NSB: non-specific binding coefficient. Cpre: post-ultrafiltration concentration. Ct: pre-ultrafiltration concentration).” left out

The nature of data set [3]: Stability in monkey plasma. In kind it is in vitro ADME, cynomolgus monkey. The note with it: 37 °C, 453 μg/L. As for the experimental part:
A total of 696.5 μL of plasma from each species (healthy mice, rat, dog, monkey, and human) were spiked with 3.5 μL of TPB15 stock solution ([…] in DMSO), resulting in a final TPB15 concentration of 453 μg/L in plasma. The mixture was then aliquoted into three tubes, each with a volume of 200 μL, maintaining a final DMSO concentration of 0.5%. After incubation in a water bath at 37 °C for 0, 30, 60, 90, and 120 min, 100 µL samples were transferred into EP tubes. Subsequently, 10 µL of internal standard working solution were added, followed by vortex mixing. Then, 500 µL of ethyl acetate were added, and the mixture was vortexed again before being centrifuged at 14,800 rpm at 4 °C for 10 min. A total of 400 µL of the supernatant were transferred into a new EP tube and placed in a vacuum concentrator (Bionoon-VAC2) (Bionoon Biotech, Shanghai, China) to dry for 1 h. The dried residue was reconstituted with 100 µL of mobile phase, vortex mixed thoroughly, and centrifuged again at 14,800 rpm at 4 °C for 10 min. A volume of 5 µL of the supernatant was then taken for LC-MS/MS analysis to determine the drug concentration. Additionally, a blank control group was established, in which PBS buffer was used in place of blank plasma in the incubation system.

Data set [4] can be described thus: Metabolic stability in rat liver microsomes (RLM). In kind it is in vitro ADME, Sprague-Dawley rat. As for the experimental part: (§2) A total of 450 μL liver microsomes from mice, rat, dog, monkey, and human were spiked with 0.5 μL of TPB15 solution and pre-incubated in a water bath at 37 °C for 10 min. Following this, 50 μL of NADPH were added to initiate the reaction. The concentrations of each substance in the incubation system are detailed in Table 1. After initiating the metabolic reaction, 50 μL aliquots were removed at incubation times of 0, 5, 15, 30, 45, 60, and 90 min and transferred to 150 μL of icy methanol solution containing the internal standard to terminate the reaction. The mixtures were swirled for 2 min and then centrifuged at 14,800 rpm at 4 °C for 10 min. […] Three samples were prepared in parallel at each time point. Additionally, both a positive control group and a blank control group were established. In the positive control group, substrate testosterone was incubated with liver microsomes from mice, rat, dog, monkey, and human. The concentrations of substrate testosterone were measured at 0 and 90 min, and the changes in concentration before and after incubation were compared to confirm the activity of the liver microsomes. The blank control group included one drug-containing inactivated liver microsome sample for each species. The metabolic stability parameters, including in vitro elimination half-life (T1/2) and in vitro intrinsic clearance rate (CLint), were calculated based on this graph using the following formulas: in vitro elimination half-life (T1/2) = −0.693/k and in vitro intrinsic clearance rate (CLint) = (0.693 × incubation medium (mL))/(liver microsomes (mg) × T1/2).
Background: Liver microsomes are a subcellular fraction often used to study metabolism.

Data set [5] can be described thus: Metabolic stability in mouse liver microsomes (MouLM). The format is in vitro ADME, KM mice. As for the experimental part:
as §2

Data set [6] can be described thus: Metabolic stability in dog liver microsomes (DLM). In kind it is in vitro ADME, beagle dog. The method, then:
as §2

The nature of data set [7]: Metabolic stability in human liver microsomes (HLM). The format is in vitro ADME. As for the experimental part: as §2
Data set [8] deals with normal mammary epithelial cells (MCF10A). Also on record: method as in PMID 32690258. The note with it: read-out: half-maximal inhibitory concentration (IC50) on normal mammary epithelial cells (MCF10A); cited from earlier work.

The values that follow come from article PMC12030497, “Plasma Protein Binding, Biostability, Metabolite Profiling, and CYP450 Phenotype of TPB15 Across Different Species: A Novel Smoothened Inhibitor for TNBC Therapy” (Pharmaceutics, 2025).

pIC50: −log10 of the molar value.

Turning to `O=C(Nc1ccc(Cl)c(-c2nnc3c(Cl)cccn23)c1)c1ccc(Cl)nc1Cl` [TPB15], the fraction unbound at 3 h is 0.176 to 0.191 in data set [1] (SD, rat plasma, 4 to 16 μg/mL, read-out: average plasma protein binding rates, range over concentrations); 0.176 to 0.191 in data set [2] (SD (rat), KM (mouse), beagle (dog)); 0.176 to 0.185 in data set [2] (mouse, rat, dog). Moreover, the fraction unbound at 3 h, 4 μg/mL in data set [1] (Sprague-Dawley, rat, plasma, 4 μg/mL TPB15, ultrafiltration, 37 °C 3 h, read-out: Plasma Protein Binding (%) SD Rat (converted)) was 0.183. Further, the fraction unbound at 3 h, 8 μg/mL in data set [1] (Sprague-Dawley, rat, plasma, 8 μg/mL TPB15, ultrafiltration, 37 °C 3 h, read-out: Plasma Protein Binding (%) SD Rat (converted)) is 0.191. In data set [1] (Sprague-Dawley, rat, plasma, 16 μg/mL TPB15, ultrafiltration, 37 °C 3 h, read-out: Plasma Protein Binding (%) SD Rat (converted)), the fraction unbound at 3 h, 16 μg/mL was 0.176. The “Remaining proportion of substrate TPB15 (%) Cynomolgus monkey” value in data set [3] (incubation 0 min) is recorded as 100.0 ± 1.7%; in data set [3] (incubation 30 min), 98.2 ± 0.6%; in data set [3] (incubation 60 min), 96.3 ± 1.2%; in data set [3] (incubation 90 min), 99.3 ± 0.9%; in data set [3] (incubation 120 min), 98.3 ± 1.5%. The “remaining proportion of TPB15 in liver microsomes” value was found to be 76.0 ± 0.89% in data set [4] (Sprague-Dawley rat microsomes, 90 min, 5 μM TPB15, 0.5 mg/mL, NADPH 1 mM); 80.0 ± 5.93% in data set [5] (KM mice microsomes, 90 min, 5 μM TPB15, 0.5 mg/mL, NADPH 1 mM); 90.3 ± 3.54% in data set [6] (beagle dog microsomes, 90 min, 5 μM TPB15, 0.5 mg/mL, NADPH 1 mM); 55.0 ± 2.81% in data set [7] (human microsomes, 90 min, 5 μM TPB15, 0.5 mg/mL, NADPH 1 mM). For the same compound, the microsomal CLint at 5 μM in data set [4] (Sprague-Dawley, rat, liver microsomes, RLM, 5 μM TPB15, 0.5 mg/mL microsomes, read-out: CLint (mL/min/mg), in vitro intrinsic clearance rate) is 0.0344 mL/min/mg; in data set [5] (KM, mouse, liver microsomes, MouLM, 5 μM TPB15, 0.5 mg/mL microsomes, read-out: CLint (mL/min/mg), in vitro intrinsic clearance rate) it was 0.0273 mL/min/mg; in data set [6] (beagle, dog, liver microsomes, DLM, 5 μM TPB15, 0.5 mg/mL microsomes, read-out: CLint (mL/min/mg), in vitro intrinsic clearance rate), 0.0132 mL/min/mg; in data set [7] (human, liver microsomes, HLM, 5 μM TPB15, 0.5 mg/mL microsomes, read-out: CLint (mL/min/mg), in vitro intrinsic clearance rate), 0.0805 mL/min/mg. For the same compound, the half-life at 5 μM in data set [6] (beagle, dog, liver microsomes, DLM, 5 μM TPB15, 0.5 mg/mL microsomes, read-out: T1/2 (min), in vitro elimination half-life) worked out at 630 min; in data set [7] (human, liver microsomes, HLM, 5 μM TPB15, 0.5 mg/mL microsomes, read-out: T1/2 (min), in vitro elimination half-life) it was 103 min. In addition, the pIC50 in data set [8] was 3.77.
